Assay results reported in EP4389749A1, “SUBSTITUTED 3,7-DIHYDRO-1H-PURINE-2,6-DIONES AND USE THEREOF” (invIOs GmbH, priority 2022, dated 2024).
pEC50: −log10 of the molar value.

How the values were obtained:
CD8+ T-cells = experiment: Immunostimulation assay with anti-CD3/28 stimulated T-cells, CD69 expression by flow cytometry; type: cell-based, human; conditions: T-cell; purified human CD4+ and CD8+ T-cells, 1 µg/ml anti-CD3, 1 µg/ml anti-CD28, 16 hours, surface FACS; read-out: EC50 CD8+
Protocol: (§1) Selection of potent compounds based on structure activity relation (SAR) using human, anti-CD3/28 stimulated T-cells. Enhanced activation of stimulated T-cells is measured by CD69 expression by flowcytometry.
(§2) White blood cell enriched buffy coats were ordered from the Austrian red cross, diluted with PBS to a total volume of 480 ml, 30 ml transferred to 50ml falcons and 11 ml lymphoprep added. Cell suspensions were centrifuged for 20 min at 2200 rpm and the PBMC containing layer transferred, three times washed with PBS and counted.
(§3) 10^7 PBMCs were magnetically labeled with CD4 and CD8 microbeads according to manufacturer's instructions and separated using autoMACS device. For dose response experiments with purified CD4+CD8+ T-cells 80000 cells were seeded per 96-well flat bottom cell culture dish.
(§4) 10 mM compounds of the invention stocks were further diluted using DMSO and equal amounts transferred to T-cell containing 96-wells. Final concentrations tested were: 30 µM, 10 µM, 3 µM, 1 µM, 0.3 µM, 0.1 µM, 0.03 µM, 0.01 µM, 0.003 µM and 0.001 µM.
(§5) For the stimulation assays 80.000 purified CD4+ and CD8+ T-cells were seeded per 96-well and incubated with 1 µg/ml anti-CD3, 1 µg/ml anti-CD28 and compounds of the invention ranging from 0.001 µM to 30 µM. DMSO only wells served as control to determine minimal T-cell activation upon stimulation and CD3/28 coupled Dynabeads were used to determine the maximal activation of T-cells. Cells were cultured for 16 hours in a humidified incubator at 37 °C and 5 % CO2.
(§6) T-cells were stained for surface antigens (anti-CD4 and anti-CD8) and cell activation markers (anti-CD25 and anti-CD69). Additionally, a fixable viability dye was used to stain viable cells. Staining was performed for 15 minutes and cells analyzed using a Fortessa flow cytometer and FlowJo Software. EC50s were calculated using GraphPad Prism® and a variable slope model (agonist vs. response - variable slope).

CD4+ T-cells = experiment: as above; type: cell-based, human; conditions: T-cell; purified human CD4+ and CD8+ T-cells, 1 µg/ml anti-CD3, 1 µg/ml anti-CD28, 16 hours, surface FACS; read-out: EC50 CD4+
Protocol: as §1, §2, §3, §4, §5, §6

| Compound | pEC50 (CD8+ T-cells) | pEC50 (CD4+ T-cells) |
| --- | --- | --- |
| CC(O)Cn1c(=O)[nH]c(=O)c2c1nc(-c1ccc(OCc3ccccc3)cc1)n2C (centres unmarked) [Compound 78, 8-(4-(benzyloxy)phenyl)-3-(2-hydroxypropyl)-7-methyl-3,7-dihydro-1H-purine-2,6-dione] | 6.30 to 7.00 | 6.00 to 6.30 |
| COc1cc(-c2nc3c(c(=O)[nH]c(=O)n3CC(O)C(F)F)n2C)ccc1OCc1ccc(C(F)F)cc1 (centres unmarked) [Compound 79, 3-(3,3-difluoro-2-hydroxypropyl)-8-(4-((4-(difluoromethyl)benzyl)oxy)-3-methoxyphenyl)-7-methyl-3,7-dihydro-1H-purine-2,6-dione] | 6.30 to 7.00 | 6.30 to 7.00 |
| COc1cc(-c2nc3c(c(=O)[nH]c(=O)n3CC(C)O)n2C)ccc1OCc1ccc(OC(F)(F)F)cc1 (centres unmarked) [Compound 82, 3-(2-hydroxypropyl)-8-(3-methoxy-4-((4-(trifluoromethoxy)benzyl)oxy)phenyl)-7-methyl-3,7-dihydro-1H-purine-2,6-dione] | 6.30 to 7.00 | 6.30 to 7.00 |
| COc1cc(-c2nc3c(c(=O)[nH]c(=O)n3CC(C)O)n2C)ccc1OCc1ccc(OC(F)F)cc1 (centres unmarked) [Compound 85, 8-(4-((4-(difluoromethoxy)benzyl)oxy)-3-methoxyphenyl)-3-(2-hydroxypropyl)-7-methyl-3,7-dihydro-1H-purine-2,6-dione] | 6.30 to 7.00 | 6.30 to 7.00 |
| COc1cc(-c2nc3c(c(=O)[nH]c(=O)n3CC(C)O)n2C)ccc1OCc1ccc(C(F)F)cc1 (centres unmarked) [Compound 86, 8-(4-((4-(difluoromethyl)benzyl)oxy)-3-methoxyphenyl)-3-(2-hydroxypropyl)-7-methyl-3,7-dihydro-1H-purine-2,6-dione] | 6.30 to 7.00 | 6.30 to 7.00 |
| COc1cc(-c2nc3c(c(=O)[nH]c(=O)n3CC(C)O)n2C)ccc1OCc1ccc(F)cc1 (centres unmarked) [Compound 87, 8-(4-((4-fluorobenzyl)oxy)-3-methoxyphenyl)-3-(2-hydroxypropyl)-7-methyl-3,7-dihydro-1H-purine-2,6-dione] | 6.30 to 7.00 | 6.00 to 6.30 |
| COc1cc(-c2nc3c(c(=O)[nH]c(=O)n3CC(C)O)n2C)ccc1OCc1ccc(Cl)cc1 (centres unmarked) [Compound 88, 8-(4-((4-chlorobenzyl)oxy)-3-methoxyphenyl)-3-(2-hydroxypropyl)-7-methyl-3,7-dihydro-1H-purine-2,6-dione] | 6.30 to 7.00 | 6.30 to 7.00 |
| COc1cc(-c2nc3c(c(=O)[nH]c(=O)n3CC(C)O)n2C)ccc1OCc1ccc(C(F)(F)F)cc1 (centres unmarked) [Compound 89, 3-(2-hydroxypropyl)-8-(3-methoxy-4-((4-(trifluoromethyl)benzyl)oxy)phenyl)-7-methyl-3,7-dihydro-1H-purine-2,6-dione] | 6.30 to 7.00 | 6.00 to 6.30 |
| COc1cc(-c2nc3c(c(=O)[nH]c(=O)n3CC(C)O)n2C)ccc1OCc1ccc(C#N)cc1 (centres unmarked) [Compound 90, 4-((4-(3-(2-hydroxypropyl)-7-methyl-2,6-dioxo-2,3,6,7-tetrahydro-1H-purin-8-yl)-2-methoxyphenoxy)methyl)benzonitrile] | 6.00 to 6.30 | 6.30 to 7.00 |
| CC(O)Cn1c(=O)[nH]c(=O)c2c1nc(-c1ccc(OCc3ccc(F)cc3)c(Cl)c1)n2C (centres unmarked) [Compound 91, 8-(3-chloro-4-((4-fluorobenzyl)oxy)phenyl)-3-(2-hydroxypropyl)-7-methyl-3,7-dihydro-1H-purine-2,6-dione] | 6.30 to 7.00 | 6.30 to 7.00 |
| CC(O)Cn1c(=O)[nH]c(=O)c2c1nc(-c1ccc(OCc3ccc(F)c(F)c3)c(F)c1)n2C (centres unmarked) [Compound 92, 8-(4-((3,4-difluorobenzyl)oxy)-3-fluorophenyl)-3-(2-hydroxypropyl)-7-methyl-3,7-dihydro-1H-purine-2,6-dione] | 5.30 to 6.00 | 5.30 to 6.00 |
| CC(O)Cn1c(=O)[nH]c(=O)c2c1nc(-c1ccc(OCc3ccc(Cl)c(F)c3)c(F)c1)n2C (centres unmarked) [Compound 93, 8-(4-((4-chloro-3-fluorobenzyl)oxy)-3-fluorophenyl)-3-(2-hydroxypropyl)-7-methyl-3,7-dihydro-1H-purine-2,6-dione] | 6.00 to 6.30 | 5.30 to 6.00 |
| COc1cc(-c2nc3c(c(=O)[nH]c(=O)n3CC(O)CO)n2C)ccc1OCc1ccc(C)cc1 (centres unmarked) [Compound 94, 3-(2,3-dihydroxypropyl)-8-(3-methoxy-4-((4-methylbenzyl)oxy)phenyl)-7-methyl-3,7-dihydro-1H-purine-2,6-dione] | 5.30 to 6.00 | 5.30 to 6.00 |
| Cc1ccc(COc2ccc(-c3nc4c(c(=O)[nH]c(=O)n4CC(O)CO)n3C)cc2F)cc1 (centres unmarked) [Compound 95, 3-(2,3-dihydroxypropyl)-8-(3-fluoro-4-((4-methylbenzyl)oxy)phenyl)-7-methyl-3,7-dihydro-1H-purine-2,6-dione] | 5.30 to 6.00 | 5.30 to 6.00 |

The next lines start with the values.

| pEC50 (CD8+ T-cells) | pEC50 (CD4+ T-cells) | Compound |
| --- | --- | --- |
| 6.30 to 7.00 | 6.30 to 7.00 | COc1cc(-c2nc3c(c(=O)[nH]c(=O)n3CC(C)CO)n2C)ccc1OCc1ccc(C(F)F)cc1 (centres unmarked) [Compound 74, 8-(4-((4-(difluoromethyl)benzyl)oxy)-3-methoxyphenyl)-3-(3-hydroxy-2-methylpropyl)-7-methyl-3,7-dihydro-1H-purine-2,6-dione] |
| 6.30 to 7.00 | 6.30 to 7.00 | COc1cc(-c2nc3c(c(=O)[nH]c(=O)n3CC(O)C(F)(F)F)n2C)ccc1OCc1ccc(C(F)F)cc1 (centres unmarked) [Compound 75, 8-(4-((4-(difluoromethyl)benzyl)oxy)-3-methoxyphenyl)-7-methyl-3-(3,3,3-trifluoro-2-hydroxypropyl)-3,7-dihydro-1H-purine-2,6-dione] |
| > 7.00 | > 7.00 | Cc1ccc(COc2ccc(-c3nc4c(c(=O)[nH]c(=O)n4CC(C)O)n3C)cc2OC(F)F)cc1 (centres unmarked) [Compound 76, 8-(3-(difluoromethoxy)-4-((4-methylbenzyl)oxy)phenyl)-3-(2-hydroxypropyl)-7-methyl-3,7-dihydro-1H-purine-2,6-dione] |
| 6.30 to 7.00 | 6.00 to 6.30 | Cc1ccc(COc2ccc(-c3nc4c(c(=O)[nH]c(=O)n4CC(C)O)n3C)cc2)cc1 (centres unmarked) [Compound 77, 3-(2-hydroxypropyl)-7-methyl-8-(4-((4-methylbenzyl)oxy)phenyl)-3,7-dihydro-1H-purine-2,6-dione] |
| > 7.00 | > 7.00 | Cc1ccc(COc2ccc(-c3nc4c(c(=O)[nH]c(=O)n4CC(O)C(F)F)n3C)cc2F)cc1 (centres unmarked) [Compound 80, 3-(3,3-difluoro-2-hydroxypropyl)-8-(3-fluoro-4-((4-methylbenzyl)oxy)phenyl)-7-methyl-3,7-dihydro-1H-purine-2,6-dione] |
| > 7.00 | 6.30 to 7.00 | CC(O)Cn1c(=O)[nH]c(=O)c2c1nc(-c1ccc(Oc3ccc(Cl)cc3)c(OC(F)F)c1)n2C (centres unmarked) [Compound 81, 8-(4-(4-chlorophenoxy)-3-(difluoromethoxy)phenyl)-3-(2-hydroxypropyl)-7-methyl-3,7-dihydro-1H-purine-2,6-dione] |
| > 7.00 | > 7.00 | COc1cc(-c2nc3c(c(=O)[nH]c(=O)n3CC(O)C(F)F)n2C)ccc1OCc1ccc(OC(F)F)cc1 (centres unmarked) [Compound 83, 3-(3,3-difluoro-2-hydroxypropyl)-8-(4-((4-(difluoromethoxy)benzyl)oxy)-3-methoxyphenyl)-7-methyl-3,7-dihydro-1H-purine-2,6-dione] |
| > 7.00 | 6.30 to 7.00 | COc1cc(-c2nc3c(c(=O)[nH]c(=O)n3CC(O)C(F)F)n2C)ccc1OCc1ccc(F)cc1 (centres unmarked) [Compound 84, 3-(3,3-difluoro-2-hydroxypropyl)-8-(4-((4-fluorobenzyl)oxy)-3-methoxyphenyl)-7-methyl-3,7-dihydro-1H-purine-2,6-dione] |
